Assay results: patent US9605029B2, “Antibody-binding peptide” (NATIONAL INSTITUTE OF ADVANCED INDUSTRIAL SCIENCE AND …, priority 2013, dated 2017)
Where two headings read alike, the source gives them in different places. Ends that are not written are not given here.

Key:
[1] = target: human IgG; details: competitive reaction with protein A; read-out: competitive inhibitory capacity Ki; cited from earlier work
[2] = target: IgG; details: Non Patent Literature 4; read-out: equilibrium dissociation constant, KD; cited from earlier work
[3] = target: T1, Fc region prepared by digesting human monoclonal antibody IgG with papain (Homo sapiens, UniProt P01857); experiment: Surface plasmon resonance, polypeptides on immobilized Fc region prepared from human monoclonal IgG (Example 2, 3) and 4); Example 8); format: binding
T1 construct: The Fc region to be immobilized to a sensor chip was prepared, by digesting human monoclonal antibody IgG with papain; made in house; host or cells: papain digest of human monoclonal IgG (Pierce Fab Preparation Kit), then MabSelect SuRe, HiTrap DEAE and Superdex 200
Experimental: The polypeptides, which were previously synthesized in an organic chemical manner were purchased from bio[…], were diluted with HBS-T buffer and controlled so as to have a concentration of 500, 400, 300, 200 or 100 nM. The surface plasmon resonance test was performed by using Biacore T100 (GE Healthcare). The Fc region to be immobilized to a sensor chip was prepared, by digesting human monoclonal antibody IgG with papain, in accordance with the instruction attached to Pierce (registered trade mark) Fab Preparation Kit (Thermo […]), followed by purifying by affinity chromatography using MabSelect SuRe (GE Healthcare), HiTrap DEAE anion exchange chromatography (GE Healthcare) and gel filtration chromatography using Superdex 200 (GE Healthcare). The Fc region prepared was immobilized to Sensor Chip CM5 (GE Healthcare) by the amine coupling method. The binding activity of the synthesized peptides prepared was measured and equilibrium dissociation constants were determined. Data were processed by use of Biacore TOO Evaluation Software (GE Healthcare).
4) In this section, it will be stated as an example that the binding activity of a polypeptide consisting of an amino acid sequence (referred to as p17) of SEQ ID NO: 57 was measured by surface plasmon resonance. The polypeptide was prepared by cleaving thioredoxin fusion protein p17_trx consisting of the amino acid sequence of SEQ ID NO: 86 with a protease and removing a thioredoxin portion. Since the thioredoxin fusion protein, which is produced by expression vector pET-48b (Novagen), has an HRV 3C protease cleavage site in the amino acid sequence, the desired polypeptide ligated to the C terminal can be obtained by use of protease.
DNA (SEQ ID NO: 124) encoding the thioredoxin fusion protein (SEQ ID NO: 86) containing p17 was synthesized by PCR and introduced to an expression vector, pET-48b (Novagen). Using the expression vector and in accordance with the same procedure as in Example, 1, 5), the thioredoxin fusion protein was prepared. The thioredoxin fusion protein (40 mg) was digested with 100 units of HRV 3C Protease (Novagen) at 4° C. under the reaction conditions according to the accompanying manual. The digested product was diluted in a 6 M guanidine hydrochloride solution and purified by gel filtration chromatography using Superdex Peptide 10/300 GL (GE Healthcare). Subsequently reverse phase chromatography using μRPC C2/C18 ST 4.6/100 (GE Healthcare) was performed to prepare a polypeptide p17 consisting of an amino acid sequence of SEQ ID NO: 57.
Subsequently, the binding activity of p17 prepared was measured by surface plasmon resonance by use of Biacore T100 (GE Healthcare).
Subsequently, the binding activity of five types of polypeptides prepared above was analyzed by surface plasmon resonance. Biacore T100 (GE Healthcare) was used in measurement. […]

[4] = target: human Fc region manufactured by Jackson ImmunoResearch Laboratories, Inc.; experiment: Surface plasmon resonance, synthetic polypeptides on immobilized human Fc region (Example 1, 4); format: binding; details: synthetic polypeptide, 25° C., HBS-T buffer pH 7.4
Experimental: The polypeptides previously synthesized in an organic chemical manner were purchased from bio[…]. Biacore T100 (GE Healthcare) was used as a surface plasmon resonance measurement apparatus. The human Fc region manufactured by Jackson ImmunoResearch Laboratories, Inc. was immobilized to Sensor Chip CM5 (GE Healthcare) in accordance with an amine coupling method using an Amine Coupling Kit (GE Healthcare). […] The binding activity of these polypeptides was measured at a reaction temperature of 25° C. The measurement data were processed by Biacore TOO Evaluation Software (GE Healthcare).

[5] = target: rabbit IgG; details: Non Patent Literature 5; cited from earlier work
Sequence of rabbit IgG (P01870 101-323 limits assumed): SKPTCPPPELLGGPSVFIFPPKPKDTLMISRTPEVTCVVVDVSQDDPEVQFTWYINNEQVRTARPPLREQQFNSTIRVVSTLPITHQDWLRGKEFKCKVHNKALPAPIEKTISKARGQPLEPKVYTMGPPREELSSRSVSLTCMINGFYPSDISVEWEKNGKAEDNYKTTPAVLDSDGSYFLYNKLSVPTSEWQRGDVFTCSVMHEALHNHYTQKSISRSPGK

[6] = target: IgG; details: domains by themselves; Non Patent Literature 28 and 29; cited from earlier work
[7] = synthetic polypeptide, read-out: equilibrium dissociation constants KD
[8] = variant polypeptide with alanine substitution, read-out: Equilibrium dissociation constant of p17 variant KD
[9] = read-out: equilibrium dissociation constant KD

In the case of “Asp Cys Ala Trp His Leu Gly Glu Leu Val Trp Cys Thr [Fc-III]”, the Ki [1] is given as 100 nM and the Kd [2] is given as 185 nM.

With “DAAWHLGELVWATYYDPETGTWAPDWRLMQGQ [SEQ ID NO: 25]” the Kd [3, 7] was 510 nM.

Work on “DAAWHLGELVWATYYDPETGTWLPDWQTMAQK [SEQ ID NO: 26]” yielded a Kd [3, 7] of 100 nM.

Substance “DAAWHLGELVWATYYDPETGTWQPDWLYMTTR [SEQ ID NO: 24]” has a Kd ([3]; synthetic polypeptide, read-out: KD) of 120 nM.

In the case of “GPGISAFSPGRGVYDPETGTWYDAAWHLGELVWATYYDPETGTWEADWQRMLGQ [SEQ ID NO: 174]”, the Kd [3, 8] is reported as 5.6 nM.

Substance “GPGISAFSPGRGVYDPETGTWYDAAWHLGELVWATYYDPETGTWEPAWQRMLGQ [SEQ ID NO: 175]” has a Kd [3, 8] of 45 nM.

Substance “GPGISAFSPGRGVYDPETGTWYDAAWHLGELVWATYYDPETGTWEPDAQRMLGQ [SEQ ID NO: 176]” has a Kd [3, 8] of 200 nM.

Work on “GPGISAFSPGRGVYDPETGTWYDAAWHLGELVWATYYDPETGTWEPDWQAMLGQ [SEQ ID NO: 177]” yielded a Kd [3, 8] of 7.8 nM.

For “GPGISAFSPGRGVYDPETGTWYDAAWHLGELVWATYYDPETGTWEPDWQRMLGQ [SEQ ID NO: 57]”, the Kd ([3]; polypeptide obtained by protease cleavage of p17_trx, read-out: KD) was 1.6 nM and the Kd ([3]; polypeptide obtained by protease cleavage of p17_trx, read-out: equilibrium dissociation constant KD) was 1.6 nM.

For “GVVRQWSGGGGSGGGGRSSIAYGGG [SEQ ID NO: 21]”, the Kd [4, 9] was 23000 nM.

Substance RSSIAYGGG [SEQ ID NO: 22] has a Kd ([4]; read-out: KD) of 110000 nM and a Kd [4, 9] of 110000 nM.

In the case of “peptide from a synthesized branched tetrapolypeptide library (Arg Thr Xaa)4 Lys2 Lys Gly, competitively works with protein A (Fassina et al.) [TG19318]”, the Kd [5] is listed as 300 nM.

In the case of “protein A: IgG-binding protein derived from Staphylococcus, conventionally used”, the Kd [6] is listed as roughly 10 nM.

In the case of “protein G: bacteria-derived natural IgG-binding protein, conventionally used”, the Kd [6] is given as roughly 490 nM.
